Reference: PubChem BioAssay (NCI)
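Cultured in 96-well plates, cells were exposed to test compound for 48 hours across five concentrations. GI50 marks 50% less growth. TGI: total growth inhibition.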

Assays:
Experiment in all cases: NCI-60 cell line screen, 48 h
[1] = test system: 786-0 renal
[2] = test system: MOLT-4 leukemia
[3] = test system: COLO 205 colon
[4] = test system: EKVX NSCLC
[5] = test system: NCI-H460 lung
[6] = test system: SK-MEL-5 melanoma
[7] = test system: SN12C renal
[8] = test system: TK-10 renal
[9] = test system: HCT-116 colon
[10] = test system: SNB-75 CNS
[11] = test system: A498 renal
[12] = test system: SW-620 colon
[13] = test system: UACC-62 melanoma
[14] = test system: RPMI-8226 leukemia
[15] = test system: K-562 leukemia
[16] = test system: IGROV1 ovarian
[17] = test system: HL-60(TB) leukemia
[18] = test system: ACHN renal
[19] = test system: LOX IMVI melanoma
[20] = test system: RXF 393 renal
[21] = test system: OVCAR-5 ovarian
[22] = test system: HT29 colon
[23] = test system: NCI-H522 lung
[24] = test system: SF-539 CNS
[25] = test system: SNB-19 CNS
[26] = test system: HCT-15 colon
[27] = test system: NCI-H226 lung
[28] = test system: UO-31 renal
[29] = test system: MDA-MB-231 breast
[30] = test system: HS 578T breast
[31] = test system: HCC-2998 colon
[32] = test system: U251 CNS
[33] = test system: SF-268 CNS
[34] = test system: T-47D breast
[35] = test system: KM12 colon
[36] = test system: SF-295 CNS
[37] = test system: DU-145 prostate
[38] = test system: HOP-92 NSCLC
[39] = test system: M14 melanoma
[40] = test system: MCF7 breast
[41] = test system: OVCAR-4 ovarian
[42] = test system: UACC-257 melanoma
[43] = test system: A549 NSCLC
[44] = test system: NCI/ADR-RES ovarian
[45] = test system: SK-OV-3 ovarian
[46] = test system: PC-3 prostate
[47] = test system: OVCAR-8 ovarian
[48] = test system: CCRF-CEM leukemia
[49] = test system: BT-549 breast
[50] = test system: SK-MEL-2 melanoma
[51] = test system: OVCAR-3 ovarian
[52] = test system: SK-MEL-28 melanoma
[53] = test system: MDA-MB-435
[54] = test system: HOP-62 NSCLC

What does the source list for `O=c1cc(-c2ccccc2)oc2cc(OCCCCCN3CCOCC3)cc(O)c12`?
GI50 [1]: 30 µM; TGI [1]: > 100 µM; GI50 [2]: 99.7 µM; TGI [2]: > 100 µM; GI50 [3]: > 100 µM; TGI [3]: > 100 µM; GI50 [4]: > 100 µM; TGI [4]: > 100 µM; GI50 [5]: 90.1 µM; TGI [5]: > 100 µM; GI50 [6]: > 100 µM; TGI [6]: > 100 µM; GI50 [7]: > 100 µM; TGI [7]: > 100 µM; GI50 [8]: 51.4 µM; TGI [8]: > 100 µM; GI50 [9]: 19.2 µM; TGI [9]: 64.8 µM; GI50 [10]: 3.64 µM; TGI [10]: 15.2 µM; GI50 [11]: 33.7 µM; TGI [11]: 82.9 µM; GI50 [12]: > 100 µM; TGI [12]: > 100 µM; GI50 [13]: 95.7 µM; TGI [13]: > 100 µM; GI50 [14]: 62.3 µM; TGI [14]: > 100 µM; GI50 [15]: 29 µM; TGI [15]: > 100 µM; GI50 [16]: 47.4 µM; TGI [16]: > 100 µM; GI50 [17]: 71 µM; TGI [17]: > 100 µM; GI50 [18]: > 100 µM; TGI [18]: > 100 µM; GI50 [19]: > 100 µM; TGI [19]: > 100 µM; GI50 [20]: 16.8 µM; TGI [20]: 46.1 µM; GI50 [21]: 18.1 µM; TGI [21]: 95.3 µM; GI50 [22]: 40.3 µM; TGI [22]: > 100 µM; GI50 [23]: 31 µM; TGI [23]: 94.9 µM; GI50 [24]: > 100 µM; TGI [24]: > 100 µM; GI50 [25]: 23.9 µM; TGI [25]: 71.6 µM; GI50 [26]: 42 µM; TGI [26]: > 100 µM; GI50 [27]: > 100 µM; TGI [27]: > 100 µM; GI50 [28]: 32.7 µM; TGI [28]: > 100 µM; GI50 [29]: 15.6 µM; TGI [29]: 63.7 µM; GI50 [30]: 41.3 µM; TGI [30]: > 100 µM; TGI [31]: 8.38 µM; GI50 [32]: 18.6 µM; TGI [32]: 45.5 µM; GI50 [33]: 75.9 µM; TGI [33]: > 100 µM; GI50 [34]: 42.5 µM; TGI [34]: > 100 µM; GI50 [35]: > 100 µM; TGI [35]: > 100 µM; GI50 [36]: 40.2 µM; TGI [36]: > 100 µM; GI50 [37]: > 100 µM; TGI [37]: > 100 µM; GI50 [38]: 11 µM; TGI [38]: 26.6 µM; GI50 [39]: > 100 µM; TGI [39]: > 100 µM; GI50 [40]: 88.4 µM; TGI [40]: > 100 µM; GI50 [41]: > 100 µM; TGI [41]: > 100 µM; GI50 [42]: > 100 µM; TGI [42]: > 100 µM; GI50 [43]: > 100 µM; TGI [43]: > 100 µM; GI50 [44]: 72 µM; TGI [44]: > 100 µM; GI50 [45]: 16.4 µM; TGI [45]: 44.1 µM; GI50 [46]: 54.1 µM; TGI [46]: > 100 µM; GI50 [47]: 68.2 µM; TGI [47]: > 100 µM; GI50 [48]: 94.5 µM; TGI [48]: > 100 µM; GI50 [49]: 77.5 µM; TGI [49]: > 100 µM; GI50 [50]: 25.4 µM; TGI [50]: 91.7 µM; GI50 [51]: > 100 µM; TGI [51]: > 100 µM; GI50 [52]: > 100 µM; TGI [52]: > 100 µM; GI50 [53]: > 100 µM; TGI [53]: > 100 µM; GI50 [54]: 10.2 µM; TGI [54]: 23.1 µM
